Earlier results as cited in the CATMoS acute toxicity set (Mansouri et al. 2021).
“And” between values parts separate entries of the source, which are not always exact repeats. Identical values can stand only once.

Test: rat acute oral toxicity
Conditions: in vivo

For `CN(C)P(=O)(OC=C(Cl)Cl)c1ccc(Cl)cc1` (stereo unspecified), which LD50 is on record?
The LD50 was 500 mg/kg.

For `O=C(O)C(F)(F)C(F)(F)C(F)(F)C(F)(F)C(F)(F)C(F)(F)C(F)(F)F`, which LD50 is on record?
Its LD50 is 430 mg/kg.

For `CCOP(=S)(OCC)SC(C(=O)OCCF)c1ccccc1` (stereo unspecified), which LD50 is on record?
The LD50 was 5 mg/kg.

For `CCC(=O)Nc1ccc2nc(C(F)(F)F)[nH]c2c1`, which LD50 is on record?
Its LD50 is 8.92 mg/kg.

For `CNCCCC1c2ccccc2C=Cc2ccccc21`, which LD50 is on record?
The LD50 was 299 mg/kg and 240 mg/kg.

For `Clc1nc(C(Cl)Cl)c(Cl)c(Cl)c1Cl`, which LD50 is on record?
Its LD50 is 1780 mg/kg.

For `Cc1cccc(OCCC(C)C)c1N(C)C(=O)CCl`, which LD50 is on record?
The LD50 was 3300 mg/kg.

Which LD50 does the source give for `CCCN(CCC)N=O` here?
Its LD50 is 480 mg/kg.

With `Nc1nc2cc(Br)ccc2o1` as the compound, how does the LD50 read?
Its LD50 is 1000 mg/kg.

Which LD50 does the source give for `Cc1cccc(C(=O)Cl)c1` here?
The LD50 was 3440 mg/kg.

With `COc1cc(CC(C)N)cc2c1OCO2` (stereo unspecified) as the compound, how does the LD50 read?
Its LD50 is 170 mg/kg.

For `c1ccsc1`, which LD50 is on record?
The LD50 was 1400 mg/kg.

For `CNNCc1ccc(C(=O)NC(C)C)cc1`, which LD50 is on record?
Its LD50 is 570 mg/kg.

For `Cc1ccc(N(C)C)cc1`, which LD50 is on record?
The LD50 was 1650 mg/kg.

For `C=C(C)C1CCC(C)(OP(=S)(OC)OC)CC1` (stereo unspecified), which LD50 is on record?
The LD50 was 500 mg/kg.

For `CN(C)CCCSc1ccccc1NC(=O)C=Cc1ccccc1`, which LD50 is on record?
Its LD50 is 1500 mg/kg.

Which LD50 does the source give for `Nc1ccc(N=Nc2c(S(=O)(=O)O)cc3cc(S(=O)(=O)O)c(N=Nc4ccccc4)c(O)c3c2N)cc1` here?
Its LD50 is 3000 mg/kg.

With `CCCCCCCCCCCCCCCCCC[N+](C)(C)Cc1ccccc1` as the compound, how does the LD50 read?
Its LD50 is 1250 mg/kg.

Which LD50 does the source give for `Oc1ccc(Cc2ccc(O)cc2)cc1` here?
The LD50 was 4950 mg/kg.

For `CCCCN(CC)c1c([N+](=O)[O-])cc(C(F)(F)F)cc1[N+](=O)[O-]`, which LD50 is on record?
The LD50 was 10000 mg/kg.

For `Cc1[nH]c(=O)n(C(C)C)c(=O)c1Br`, which LD50 is on record?
The LD50 was 3400 mg/kg.

For `CC=CC(=O)OC(C=CC)OC(=O)C=CC` (stereo unspecified), which LD50 is on record?
Its LD50 is 2590 mg/kg.

Which LD50 does the source give for `CC[N+]1(CCOC(=O)C(O)(c2ccccc2)c2ccccc2)CCCCC1` here?
The LD50 was 4600 mg/kg.

With `CC(C)C(=O)OCc1ccccc1` as the compound, how does the LD50 read?
The LD50 was 2850 mg/kg.

Which LD50 does the source give for `CC(=O)CC(=O)Nc1ccc(C)cc1C` here?
Its LD50 is 3000 mg/kg.

With `CCOP(=S)(OCC)SC1CCOC1=O` (stereo unspecified) as the compound, how does the LD50 read?
The LD50 was 1000 mg/kg.

With `C=COCC(CC)CCCC` (stereo unspecified) as the compound, how does the LD50 read?
Its LD50 is 1350 mg/kg.

Which LD50 does the source give for `CCOC(=O)C1=CN(C(=O)CC)C2CCCC(C)N2C1=O` (stereo unspecified) here?
Its LD50 is 2970 mg/kg.

For `Cc1ccc([N+](=O)[O-])cc1N`, which LD50 is on record?
The LD50 was 574 mg/kg.

For `Fc1c(Br)c(Br)c2nc(C(F)(F)F)[nH]c2c1Br`, which LD50 is on record?
Its LD50 is 9.64 mg/kg.

For `CCC1C(C)=NN=C(c2ccc(OC)c(OC)c2)c2cc(OC)c(OC)cc21` (stereo unspecified), which LD50 is on record?
Its LD50 is 825 mg/kg.

With `Cc1nc2sccn2c1/C=N/NC(=O)CN(C)C` as the compound, how does the LD50 read?
The LD50 was 1500 mg/kg.

Which LD50 does the source give for `CON=Cc1ccc(OCC(O)(Cn2cncn2)C(C)(C)C)cc1` (stereo unspecified) here?
Its LD50 is 921 mg/kg.

Which LD50 does the source give for `CCOCCOCCOC(C)=O` here?
Its LD50 is 11000 mg/kg.

For `Cc1ccc(C)c(C)c1C`, which LD50 is on record?
The LD50 was 6410 mg/kg.

For `Cc1ccc(Cl)c(OCC(O)CNC(C)(C)C)c1` (stereo unspecified), which LD50 is on record?
The LD50 was 518 mg/kg.

With `c1ccc(C2CN3CCSC3=N2)cc1` (stereo unspecified) as the compound, how does the LD50 read?
The LD50 was 180 mg/kg and 480 mg/kg.

For `CCCCNC(C)c1ccccc1` (stereo unspecified), which LD50 is on record?
Its LD50 is 360 mg/kg.

Which LD50 does the source give for `CCCCCCCCCCOC(=O)c1ccccc1C(=O)OCCCCCCCC` here?
Its LD50 is 45000 mg/kg.

Which LD50 does the source give for `CNC(=C[N+](=O)[O-])NCCSCc1csc(CN(C)C)n1` here?
Its LD50 is 1650 mg/kg.

Which LD50 does the source give for `CC(C)(OO)c1cccc(C(C)(C)OO)c1` here?
The LD50 was 1500 mg/kg.

With `O=C(O)C1CCCCC1` as the compound, how does the LD50 read?
Its LD50 is 3260 mg/kg.

With `CCCCCCCCCCOC(=O)C[N+](C)(C)CCSCC[N+](C)(C)CC(=O)OCCCCCCCCCC` as the compound, how does the LD50 read?
Its LD50 is 2660 mg/kg.

For `COP(=S)(OC)Oc1cc(Cl)c(I)cc1Cl`, which LD50 is on record?
Its LD50 is 2330 mg/kg.

With `O=CC(Cl)CCl` (stereo unspecified) as the compound, how does the LD50 read?
The LD50 was 160 mg/kg.

With `OC(Cn1cncn1)(c1ccc(F)cc1)c1ccccc1F` (stereo unspecified) as the compound, how does the LD50 read?
The LD50 was 1140 mg/kg.

For `c1ccc2cnccc2c1`, which LD50 is on record?
Its LD50 is 360 mg/kg.

With `CC(=O)C=CC1C(C)C=C(C)CC1C` (stereo unspecified) as the compound, how does the LD50 read?
The LD50 was 5200 mg/kg.

With `Cc1cc(OC(=O)N(C)C)nn1C(=O)N(C)C` as the compound, how does the LD50 read?
The LD50 was 25 mg/kg.

For `Clc1nc(Cl)c(Cl)c(Cl)c1Cl`, which LD50 is on record?
The LD50 was 435 mg/kg.

With `COP(=S)(OC)Oc1cc(Cl)c([N+](=O)[O-])c(Cl)c1` as the compound, how does the LD50 read?
Its LD50 is 750 mg/kg.

For `CC(=O)CCC=C(C)C`, which LD50 is on record?
The LD50 was 3500 mg/kg.

For `O=C1C[C@@H]2OCC=C3CN4CC[C@]56c7ccccc7N1[C@H]5[C@H]2[C@H]3C[C@H]46`, which LD50 is on record?
Its LD50 is 16.2 mg/kg.

For `CC(C)(C)c1ccc2c(c1)C(C)(C)CC2`, which LD50 is on record?
Its LD50 is 15500 mg/kg.

For `CCOP(=S)(OCC)OC(=CCl)c1ccc(Cl)cc1Cl`, which LD50 is on record?
The LD50 was 10 mg/kg.

For `CNC(=O)ON=C1SCCOC1C` (stereo unspecified), which LD50 is on record?
Its LD50 is 6 mg/kg.
